Assay [1] deals with T1, Kappa-type opioid receptor (Homo sapiens, UniProt P41145). Description: Agonist activity at human kappa opioid receptor stably transfected in CHO cells by [35S]GTPgammaS assay relative to (-)-U50488. Type of assay: functional, cell-based.
Assay [2] deals with T1, Kappa-type opioid receptor. The assay is described as follows: Displacement of [125I]IOXY from human kappa opioid receptor.
Assay [3] addresses Delta-type opioid receptor (Homo sapiens, UniProt P41143). Description: Displacement of [125I]IOXY from human delta opioid receptor.
Assay [4] deals with T1, Kappa-type opioid receptor. The assay is described as follows: Agonist activity at human kappa opioid receptor stably transfected in CHO cells by [35S]GTP-gamma-S assay. It is filed as functional, cell-based.
The next assay concerns the target Mu-type opioid receptor (Homo sapiens, UniProt P35372). The assay is described as follows: Displacement of [125I]IOXY from human mu opioid receptor.

Results on four molecules are retold here after ChEMBL document CHEMBL1148513, “Synthetic studies of neoclerodane diterpenes from Salvia divinorum: selective modification of the furan ring” (Bioorg Med Chem Lett, 2006).

T1 sequence (P41145 whole entry): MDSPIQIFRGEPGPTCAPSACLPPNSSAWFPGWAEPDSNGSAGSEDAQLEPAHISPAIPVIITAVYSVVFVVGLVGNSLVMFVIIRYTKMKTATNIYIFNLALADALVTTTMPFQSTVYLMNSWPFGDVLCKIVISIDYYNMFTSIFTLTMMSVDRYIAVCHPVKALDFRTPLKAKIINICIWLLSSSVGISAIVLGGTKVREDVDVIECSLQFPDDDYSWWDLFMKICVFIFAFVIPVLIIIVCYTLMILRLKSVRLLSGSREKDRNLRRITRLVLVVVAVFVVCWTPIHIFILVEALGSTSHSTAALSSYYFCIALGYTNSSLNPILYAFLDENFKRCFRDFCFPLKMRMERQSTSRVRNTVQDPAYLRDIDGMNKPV
Chain of Delta-type opioid receptor (P41143 whole entry): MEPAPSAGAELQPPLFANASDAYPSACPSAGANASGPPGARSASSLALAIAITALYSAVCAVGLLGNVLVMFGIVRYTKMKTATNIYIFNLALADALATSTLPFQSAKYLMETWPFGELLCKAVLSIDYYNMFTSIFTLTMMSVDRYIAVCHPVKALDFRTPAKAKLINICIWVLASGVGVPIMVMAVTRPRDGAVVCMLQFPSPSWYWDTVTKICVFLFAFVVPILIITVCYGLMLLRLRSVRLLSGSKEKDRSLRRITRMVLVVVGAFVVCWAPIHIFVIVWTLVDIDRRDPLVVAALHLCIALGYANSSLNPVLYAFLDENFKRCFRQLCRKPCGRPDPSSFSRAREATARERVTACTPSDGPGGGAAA
Chain of Mu-type opioid receptor (P35372 whole entry): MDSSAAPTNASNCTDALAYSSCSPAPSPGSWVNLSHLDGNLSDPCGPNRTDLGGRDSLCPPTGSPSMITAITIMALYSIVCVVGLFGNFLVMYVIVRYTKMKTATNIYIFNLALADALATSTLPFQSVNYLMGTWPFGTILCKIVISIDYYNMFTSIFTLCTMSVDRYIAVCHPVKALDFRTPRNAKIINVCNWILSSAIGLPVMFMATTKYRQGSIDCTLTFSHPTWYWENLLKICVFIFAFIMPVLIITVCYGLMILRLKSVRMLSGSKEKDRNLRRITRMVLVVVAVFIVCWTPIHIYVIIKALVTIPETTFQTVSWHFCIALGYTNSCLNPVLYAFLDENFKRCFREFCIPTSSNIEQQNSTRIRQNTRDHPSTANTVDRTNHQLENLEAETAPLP

Turning to `COC(=O)[C@@H]1C[C@H](OC(C)=O)C(=O)[C@H]2[C@@]1(C)CC[C@H]1C(=O)O[C@H](c3ccn(S(=O)(=O)c4ccccc4)c3)C[C@]21C`, the maximal effect (Emax) in assay [1] is 60%. Further, the Ki was 0.41 µM in assay [2], over 10 µM in assay [3] and over 10 µM at Mu-type opioid receptor. Besides, in assay [4], the ED50 amounted to 9.16 µM.
`COC(=O)[C@@H]1C[C@H](OC(C)=O)C(=O)[C@H]2[C@@]1(C)CC[C@H]1C(=O)O[C@H](c3ccn(S(=O)(=O)c4ccc(OC)cc4)c3)C[C@]21C` displayed a maximal response (Emax) in assay [1] of 60%. Also, the values for the inhibition constant Ki (in assay [2]; in assay [3]; on Mu-type opioid receptor) were 1.62 µM, over 10 µM and over 10 µM, respectively. For the same molecule, the ED50 in assay [4] turned out to be 15.2 µM.
As to `COC(=O)c1coc([C@@H]2C[C@]3(C)[C@H]4C(=O)[C@@H](OC(C)=O)C[C@@H](C(=O)OC)[C@]4(C)CC[C@H]3C(=O)O2)n1`, the inhibitory constant (Ki) in assay [2] is 8.53 µM; in assay [3], over 10 µM; on Mu-type opioid receptor, over 10 µM.
Regarding `COC(=O)[C@@H]1C[C@H](OC(C)=O)C(=O)[C@H]2[C@@]1(C)CC[C@H]1C(=O)O[C@H](c3ccn(S(C)(=O)=O)c3)C[C@]21C`, the Emax in assay [1] was determined as 70%. Besides, the inhibition constant Ki was 0.84 µM in assay [2], over 10 µM in assay [3] and over 10 µM at Mu-type opioid receptor. Besides, the ED50 in assay [4] amounted to 3.6 µM.
